In paper PMC12521730, “Quantitative dual-isotope preclinical SPECT/CT imaging and biodistribution of the mercury-197m/g theranostic pair with [^197m/gHg]HgCl2 and a [^197m/gHg]Hg-tetrathiol complex as a platform for radiopharmaceutical development” (EJNMMI Radiopharmacy and Chemistry, 2025):
“Also recorded” adds a separate entry of the source.

Test: In vivo SPECT/CT imaging
Parameters: species or system healthy male C57BL/6 mice
Details: for organs of tracer accumulation (qualitative): 0-2 h post injection
Method: For animal injection, the tracer was prepared at high molar activity. Radiolabeling of H4Tetrathiol (10^–2 M in DMSO; 40 μL for imaging, 20 μL for bioD) (or DMSO, for [^197m/gHg]HgCl2 mice) with [^197m/gHg]HgCl2 (imaging: 26.7 MBq total m + g, 62 μL; bioD: 13.04 MBq total m + g, 31 μL) was performed in a mixture of ammonium acetate buffer (1 M; pH 7; 198 μL for imaging or 149 μL for bioD) and 6 M NaOH (72 μL or 38 μL required to achieve a pH of 7.5 after addition of activity, for imaging or BioD labeling, respectively). The reaction was allowed to stand for 1 h at 37 °C and quantitative (> 99%) non-isolated percentage radiochemical yield (%RCY) was confirmed via the iTLC methods mentioned above. Further, 100 µL of the reaction was diluted with 50 µL of PBS Tween-20 (0.01 M sodium phosphate, 0.15 M NaCl, 0.05% Tween-20) for imaging mice, or 50 µL of the reaction was diluted with 100 µL of PBS Tween-20 for BioD mice. The tracers were prepared immediately before injection to avoid radiolysis and minimize the tracer loss to any surfaces due to its lipophilicity. The injected doses of each isomer, ^197mHg and ^197gHg, were quantified by measuring an aliquot of known volume of each tracer preparation via HPGe gamma spectroscopy and decay corrected for time of injection using the Eqs. (1) and (2).
The study was conducted in compliance with the guidelines set by the Canadian Council on Animal Care (CCAC) and approved by the Animal Care Committee (ACC) at the University of British Columbia (A20-0132). A total of eight healthy male C57BL/6 mice weighing approximately 30 g for group 1 and 25 g for group 2 were used in the study. The mice were divided into two experimental groups: group 1 (n = 4) received free [^197m/gHg]HgCl2, while group 2 (n = 4) received [^197m/gHg]Hg-Tetrathiol. Within each group, one mouse was allocated for imaging, while the rest were designated for ex vivo biodistribution analysis. For SPECT imaging, the designated mice were anesthetized using isoflurane via a precision vaporizer. […] Once anesthetized, each imaging mouse received an intravenous (IV) injection via the lateral tail vein of 150 μL of [^197m/gHg]HgCl2 (0.492 MBq ^197mHg + 3.171 MBq ^197gHg) or [^197m/gHg]Hg-Tetrathiol (0.899 MBq ^197mHg + 4.230 MBq ^197gHg) in PBS Tween-20 (0.01 M Na Phosphate, 0.15 M NaCl, 0.05% Tween-20).
The animals were immediately placed in the scanner and whole-body scans were acquired dynamically during 120 min post-injection (6 frames × 20 min/frame). Throughout the entire scanning procedure, mice were kept under isoflurane anesthesia and body temperature was maintained constant using a heated imaging bed. […] These energy window settings yielded the optimum, and most robust quantification results based on the phantom experiments (vide supra). […]

Compound	organs of tracer accumulation (qualitative)	organs of tracer accumulation (qualitative) (listed as [^197m/gHg]Hg-tetrathiol)	blood clearance and excretion (qualitative) (compared with [197m/gHg]HgCl2)
O=C(CC[S-])OCC(COC(=O)CC[S-])(COC(=O)CC[S-])COC(=O)CC[S-].[Hg+2] [[^197m/gHg]Hg-Tetrathiol]	predominantly accumulates in the spleen and liver	tracer accumulation primarily in the liver and spleen	faster blood clearance and excretion through the reticuloendothelial system (RES)
[Cl][Hg][Cl] [[^197m/gHg]HgCl2]	primarily accumulating in the kidneys; also recorded: strong affinity for the kidneys	–	–
